The text below walks through data of paper PMC10855113, “Opioid Analgesic as a Positive Allosteric Modulator of Acid-Sensing Ion Channels” (International Journal of Molecular Sciences, 2024).

For data set [1], the system named is ASIC3. To be noted: mice; activation of ASIC3; ref [31],[32]; cited from earlier work. From the text: In this study, we have investigated the pharmacological effect of tafalgin (Taf) on ASICs. […] These channels, preferably having a neuronal localization, play an important role in the functioning of CNS and PNS, and are involved in the regulation of synaptic plasticity and learning, the fear perception, and responses to ischemic stroke, multiple sclerosis, and nociception. Positive modulators of ASICs are shown to have ...

Data set [2] addresses T1, rat ASIC3 (Rattus norvegicus, UniProt O35240).
T1 construct: expressed in transfected cells; host or cells: Xenopus laevis oocytes injected with cRNA from a PCi plasmid
T1 sequence (O35240 1-533): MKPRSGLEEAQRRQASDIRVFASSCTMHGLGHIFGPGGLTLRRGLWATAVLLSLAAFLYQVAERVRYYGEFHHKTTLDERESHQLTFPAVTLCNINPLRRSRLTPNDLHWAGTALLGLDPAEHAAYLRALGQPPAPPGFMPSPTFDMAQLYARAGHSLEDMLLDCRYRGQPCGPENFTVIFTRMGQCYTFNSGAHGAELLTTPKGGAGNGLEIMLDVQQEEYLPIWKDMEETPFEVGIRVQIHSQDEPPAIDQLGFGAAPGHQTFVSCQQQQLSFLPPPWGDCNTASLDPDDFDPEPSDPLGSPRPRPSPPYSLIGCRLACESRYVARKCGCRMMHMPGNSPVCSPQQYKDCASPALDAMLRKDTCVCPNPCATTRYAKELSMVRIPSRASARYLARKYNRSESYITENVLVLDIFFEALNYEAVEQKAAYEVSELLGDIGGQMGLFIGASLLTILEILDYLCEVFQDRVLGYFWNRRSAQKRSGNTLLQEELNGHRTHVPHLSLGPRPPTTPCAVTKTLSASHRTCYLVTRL
Description: cell-based.

In data set [3] the test system is ASIC channels. Also on record: method as in PMID 34721074. To be noted: dual-action ligand; ref [39]; cited from earlier work.
The subject of data set [4] is ASIC3. Also on record: method as in PMID 37918499. To be noted: suppressing morphine-induced microglial activation through ASIC3 inhibition; ref [40]; cited from earlier work.
Data set [5] addresses T2, rat ASIC1a (Rattus norvegicus, UniProt P55926).
T2 construct: expressed in transfected cells; host or cells: Xenopus laevis oocytes injected with cRNA from a PCi plasmid
T2 sequence (P55926 1-526): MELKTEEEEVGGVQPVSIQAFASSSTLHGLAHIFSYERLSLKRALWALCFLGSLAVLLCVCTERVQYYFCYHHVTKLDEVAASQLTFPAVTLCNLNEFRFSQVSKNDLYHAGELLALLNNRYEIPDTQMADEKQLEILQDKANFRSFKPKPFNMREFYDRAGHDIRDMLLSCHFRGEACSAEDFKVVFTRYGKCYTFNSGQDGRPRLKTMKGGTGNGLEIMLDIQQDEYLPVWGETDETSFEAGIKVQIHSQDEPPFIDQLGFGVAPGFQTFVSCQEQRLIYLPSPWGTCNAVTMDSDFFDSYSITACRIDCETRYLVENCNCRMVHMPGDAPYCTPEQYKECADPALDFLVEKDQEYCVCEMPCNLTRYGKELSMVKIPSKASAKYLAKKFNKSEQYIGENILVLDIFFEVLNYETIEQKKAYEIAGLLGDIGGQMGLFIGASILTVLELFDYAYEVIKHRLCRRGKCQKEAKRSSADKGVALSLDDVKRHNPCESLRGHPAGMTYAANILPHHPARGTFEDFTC
Description: two-electrode voltage clamp, homomeric rat ASIC1a in X. laevis oocytes. It counts as cell-based. On the technique in general: In two-electrode clamp one electrode senses voltage and the other passes current.

Data set [6] concerns the target T1, rat ASIC3. Description: two-electrode voltage clamp, homomeric rat ASIC3 in X. laevis oocytes. It counts as cell-based.
For data set [7], the target named is T3, human ASIC3 (Homo sapiens, UniProt Q9UHC3).
T3 construct: expressed in transfected cells; host or cells: Xenopus laevis oocytes injected with cRNA from a pVAX1 plasmid
T3 sequence (Q9UHC3 1-531): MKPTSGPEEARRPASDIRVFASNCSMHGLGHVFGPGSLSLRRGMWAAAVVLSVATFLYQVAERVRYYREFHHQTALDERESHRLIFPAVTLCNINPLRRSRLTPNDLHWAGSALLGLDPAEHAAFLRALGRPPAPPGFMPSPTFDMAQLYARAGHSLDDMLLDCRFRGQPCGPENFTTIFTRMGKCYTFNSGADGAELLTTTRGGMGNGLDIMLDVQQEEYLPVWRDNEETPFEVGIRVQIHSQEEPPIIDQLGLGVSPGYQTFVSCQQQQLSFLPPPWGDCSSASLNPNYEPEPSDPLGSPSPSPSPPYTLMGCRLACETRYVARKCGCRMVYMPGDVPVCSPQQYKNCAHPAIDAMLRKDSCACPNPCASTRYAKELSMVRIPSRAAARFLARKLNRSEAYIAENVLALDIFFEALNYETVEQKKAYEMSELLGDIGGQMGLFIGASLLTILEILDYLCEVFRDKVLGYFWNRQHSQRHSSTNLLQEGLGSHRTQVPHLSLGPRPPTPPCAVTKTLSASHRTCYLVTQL
Description: two-electrode voltage clamp, human ASIC3 in X. laevis oocytes. It counts as cell-based.

For data set [8], the target named is T1, rat ASIC3. Description: steady-state desensitization (SSD) of rat ASIC3. To be noted: pH 7, without Taf 1.4 ± 0.2%, control = pH drop 7.4 to 5.5, mean ± SEM, n = 5, read-out: integral current at conditioning pH 7.0, % of control. It counts as cell-based.
Data set [9] deals with T3, human ASIC3. Description: steady-state desensitization of human ASIC3. In kind it is cell-based. To be noted: pH 7.4; 1 mM Taf; without Taf 11 ± 2%; control = pH drop 8.0 to 5.5; mean ± SEM, n = 5; p = 0.005; read-out: total integral current at conditioning pH 7.4, % of control.
Data set [10] concerns the target T2, rat ASIC1a. Description: steady-state desensitization of rat ASIC1a. In kind it is cell-based. To be noted: 1 mM Taf; without Taf 9.1 ± 2.5%; stimulus pH 5.5; mean ± SEM, n = 5; p = 0.9; read-out: integral current at conditioning pH 7.0, % of control.
For data set [11] the following is noted: solution for subcutaneous administration; ref manufacturer's website https://sotex.ru/production/catalog/detail.php?ELEMENT_ID=4952; cited from earlier work. An excerpt: Due to the modulating effect of Taf towards ASIC3 in peripheral neurons, the proven analgesic effect of Taf on human may be accompanied by the development of side effects such as pain, mechanical hyperalgesia, inflammatory muscle and joint hyperalgesia, etc., where ASIC3 plays a crucial role. In addition, the significant modulating effect on ASIC1b/3 heteromers (Figure 7) may also have a negative impact on both peripheral acute and acid-induced chronic pain, where the ASIC1b-containing channels also play an important role. Indeed, the recommended dose for subcutaneous a ...

Data set [12] deals with ASIC channels. To be noted: cited from earlier work.
The test system of data set [13] is ASIC1a and ASIC1a-containing channels. To be noted: cited from earlier work.
The test system of data set [14] is ASIC1. To be noted: cited from earlier work.

Read-outs that look alike come from different tables or passages of the source. Where a SMILES comes first, the peptide text is derived from it. Bridges are numbered along the chain shown (N, C = ends). Where no end group is shown, it is not given here. [ ]: non-standard residue; d: D form.

For `Cc1nc(NC(=N)N)nc2ccccc12` [2-guanidine-4-methylquinazoline], the nocifensive behavior result in data set [1] is “induce nocifensive behavior in mice”.

A word on the IC50: it is the midpoint of a concentration-inhibition curve. Consider `N=C(N)NC(=O)c1nc(Cl)c(N)nc1N` [Ami, amiloride], for which, in [2], the “nH of inhibition in the presence of Taf” value is listed as 1.06 ± 0.37; the “residual integral current in the presence of Taf, % of control” value amounted to 129 ± 9%; the τdes was determined as 732 ± 46 ms. In data set [2] (half-maximal inhibitory concentration (IC50)), the IC50 is 66.9 ± 5.2 µM. For the same compound, in data set [2] (half-maximal inhibitory concentration (IC50) in the presence of Taf), the IC50 came out at 61.5 ± 21.2 µM. In addition, in data set [2] (pH 7.4), the nH of inhibition was 0.87 ± 0.05 and the “residual integral current (lower asymptote), % of control” value is given as 36 ± 2%. The “action on ASIC channels” value in data set [3] is “capable of blocking ASIC channels and acting as an ASIC3-positive modulator”. In addition, the chronic morphine tolerance result in [4] is listed as “reduce chronic morphine tolerance”.

Usually EC50 stands for the concentration needed to bring the measured effect to its halfway point. The low end stands for an effect from little substance, the high end for a need for much substance. `C[C@@H](NC(=O)[C@@H](N)Cc1ccc(O)cc1)C(=O)N[C@@H](Cc1ccccc1)C(=O)NCC(N)=O` [Taf, Tyr-D-Ala-Phe-Gly-NH2] (H-Y[dA]FG-NH2): the EC50 in data set [5] amounted to 1050 ± 270 µM; in data set [6], 86 ± 24 µM; in [7], 330 ± 80 µM. Moreover, the “increase in the integral current” value is reported as 40 ± 5% in [5] (0.3 mM Taf, Vh −50 mV, pH 7.4 to 5.5, mean ± SEM, n = 5, p < 0.001) and 115 ± 6% in data set [6] (0.3 mM Taf, Vh −50 mV, pH 5.5 stimulus, isoform screening, mean ± SEM, n = 5, p < 0.001). For the same compound, the “integral current Imax, % of control” value in [5] (pH 7.4 to 5.5, mean ± SEM, n = 10, same as rASIC3 (p = 0.45)) was found to be 332 ± 103%. In data set [6] (0.3 mM Taf pre-applied 30 s in resting state, conditioning pH 7.4, stimulus pH 5.5, mean ± SEM, n = 5, p < 0.001), the “increase in the integral current, protocol p.-a.” value is 116 ± 5%. For the same compound, in data set [6] (integral current vs control (pH drop from 7.4 to 5.5), mean ± SEM, n = 9), the “maximum current (Imax), to control” value was 251 ± 15%. Besides, in data set [7] (integral current, pH 8.0 to 5.5, mean ± SEM, 5 cells), the “Imax (upper asymptote), % of control” value was 373 ± 28%. In addition, in data set [7] (~9 mM solution vs EC50 on hASIC3), the “recommended subcutaneous dose concentration (~9 mM) over EC50 for human ASIC3” value is “approximately 30 times”. For the same compound, in data set [8] (0.3 mM Taf, p = 0.009), the remaining activity at 300 µM turned out to be 3.6 ± 0.3%. Also, the remaining activity at 2000 µM in data set [8] (2 mM Taf) worked out at 50 ± 3%. The remaining activity at 1000 µM was 22 ± 4% in [9] and 9.4 ± 2.5% in [10]. Besides, in data set [11], the side effects entry was “peripheral neuropathy, itching, and pain at the injection site”.

For the compound `CN1CC[C@]23c4c5ccc(O)c4O[C@H]2[C@@H](O)C=C[C@H]3[C@H]1C5` [morphine], the “effect on ASIC channels” value in [12] is on record as “negative modulators”.

On to `COc1ccc2c3c1O[C@H]1C(=O)CC[C@@]4(O)[C@@H](C2)N(C)CC[C@]314` [oxycodone], for which the “effect on ASIC channels” value in data set [12] was “positive modulating effect”.

Regarding DAMGO, the “effect on ASIC channels” value in [12] is “negative modulators”.

The compound “GTACSCGNSKGIYWFYRPSCPTDRGYTGSCRYFLGTCCTPAD (disulfide 4-37, 6-30, 20-38) [APETx2]” returned a τdes in data set [2] (100 nM APETx2, control 282 ± 22 ms, mean ± SEM, n = 5, p = 0.2) of 240 ± 22 ms. Moreover, the “nH of inhibition in the presence of Taf” value in data set [2] (APETx2 + 0.3 mM Taf, mean ± SEM, 5–6 cells) was 1.11 ± 0.05. Moreover, the nH of inhibition in data set [2] (APETx2 alone, mean ± SEM, 5–6 cells) is reported as 1.37 ± 0.05. Moreover, the “inhibition of the channel” value in data set [2] (APETx2 alone, pH 7.4 to 5.5) was “completely inhibited the channel”.

In the case of dynorphin, the “effect on proton-evoked currents” value in data set [13] was “restore the proton-evoked currents”. Also, the acidosis-induced neuronal death entry in data set [14] was “increase the acidosis-induced neuronal death”.
